In patent publication US8785459B2, “Quinazoline compounds as kinase inhibitors” (Development Center for Biotechnology, priority 2011, dated 2014) one finds IC50 and inhibition data, which are given here for eleven compounds.

Each structure is given as a SMILES string.

Format in all cases: biochemical
Test [1] deals with B-Raf (V600E) (Homo sapiens (Human), UniProt P15056, V600E). Description: Raf kinase assay (B-Raf (V600E)), [33P] incorporation into MEK1(K97R). How it is done: (§1) A. Raf Kinase Assays (B-Raf, B-raf (V600E), and C-Raf)
(§2) Inhibition of kinase activity by test compound disclosed herein was estimated by quantifying the amount of [^33P] incorporation of substrate in the presence of test compound. Standard assay conditions were 2 ng of recombinant C-Raf or 5 ng of recombinant B-Raf or 5 ng of recombinant B-Raf (V600E) kinase (Upstate Biotechnology) with 500 ng MEK1(K97R) in assay buffer {8 μM ATP, 0.5 μCi [^33P]ATP (specific activity 3000 Ci/mmol, PerkinElmer), 50 mM Tris/HCl (pH7.5), and 1 mM EGTA, 1 mM Na3VO4, 1% 2-mercaptoethanol, 0.1% Brij 35, and 0.2 mg/ml BSA} at a final volume of 25 μL. Reactions were incubated at 30° C. for 30 min and stopped by adding 3% phosphoric acid, harvested onto a 96-well GF/B UniFilter (PerkinElmer) using a unifilter harvester (PerkinElmer), and counted with a TopCount microplate scintillation counter (PerkinElmer). The IC50 values of inhibitors were determined after carrying out assays at 3-fold serially diluted concentrations of each compound in duplication. The results were analyzed using linear regression software (GraphPad Prism 4; GraphPad Software Inc.). Inhibition of B-Raf, B-raf (V600E), and C-Raf kinases by various compounds listed in Table 1 are summarized and shown in Table 3 below. IC50 value is defined as the concentration of the test compound which achieves a half-maximal inhibition of the kinase activity.

In test [2] the target is C-Raf (Homo sapiens (Human), UniProt P04049). The experiment in a line: Raf kinase assay (C-Raf), [33P] incorporation into MEK1(K97R). How it is done:
as §1, §2

Test [3] concerns the target B-Raf (Homo sapiens (Human), UniProt P15056). The experiment in a line: Raf kinase assay (B-Raf), [33P] incorporation into MEK1(K97R). The conditions noted are these: for inhibition at 1 µM: 1.0 μM compound, read-out: B-Raf inhibition at 1.0 μM. How it is done: as §1, §2

What is called IC50 is the concentration at which inhibition is half-maximal. What is called inhibition is the share of the control response that was lost under treatment.

Chain of C-Raf (P04049 whole entry): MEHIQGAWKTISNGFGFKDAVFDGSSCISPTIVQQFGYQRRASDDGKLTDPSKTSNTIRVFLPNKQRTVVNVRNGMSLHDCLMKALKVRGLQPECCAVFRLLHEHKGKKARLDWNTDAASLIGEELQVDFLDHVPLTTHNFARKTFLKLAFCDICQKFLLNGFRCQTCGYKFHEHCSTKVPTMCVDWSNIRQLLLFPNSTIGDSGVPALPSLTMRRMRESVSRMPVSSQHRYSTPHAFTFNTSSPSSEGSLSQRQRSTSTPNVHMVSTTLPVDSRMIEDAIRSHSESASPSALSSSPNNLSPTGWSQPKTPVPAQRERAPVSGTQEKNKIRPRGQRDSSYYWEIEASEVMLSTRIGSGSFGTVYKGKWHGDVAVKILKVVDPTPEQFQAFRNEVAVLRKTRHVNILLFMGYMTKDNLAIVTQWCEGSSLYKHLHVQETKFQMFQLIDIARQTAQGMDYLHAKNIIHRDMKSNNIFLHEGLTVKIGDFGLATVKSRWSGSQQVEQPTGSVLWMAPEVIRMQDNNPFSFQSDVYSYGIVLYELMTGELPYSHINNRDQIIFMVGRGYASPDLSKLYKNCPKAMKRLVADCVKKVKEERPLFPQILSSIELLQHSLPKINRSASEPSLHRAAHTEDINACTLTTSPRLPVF
Chain of B-Raf (V600E) (P15056 whole entry V600E): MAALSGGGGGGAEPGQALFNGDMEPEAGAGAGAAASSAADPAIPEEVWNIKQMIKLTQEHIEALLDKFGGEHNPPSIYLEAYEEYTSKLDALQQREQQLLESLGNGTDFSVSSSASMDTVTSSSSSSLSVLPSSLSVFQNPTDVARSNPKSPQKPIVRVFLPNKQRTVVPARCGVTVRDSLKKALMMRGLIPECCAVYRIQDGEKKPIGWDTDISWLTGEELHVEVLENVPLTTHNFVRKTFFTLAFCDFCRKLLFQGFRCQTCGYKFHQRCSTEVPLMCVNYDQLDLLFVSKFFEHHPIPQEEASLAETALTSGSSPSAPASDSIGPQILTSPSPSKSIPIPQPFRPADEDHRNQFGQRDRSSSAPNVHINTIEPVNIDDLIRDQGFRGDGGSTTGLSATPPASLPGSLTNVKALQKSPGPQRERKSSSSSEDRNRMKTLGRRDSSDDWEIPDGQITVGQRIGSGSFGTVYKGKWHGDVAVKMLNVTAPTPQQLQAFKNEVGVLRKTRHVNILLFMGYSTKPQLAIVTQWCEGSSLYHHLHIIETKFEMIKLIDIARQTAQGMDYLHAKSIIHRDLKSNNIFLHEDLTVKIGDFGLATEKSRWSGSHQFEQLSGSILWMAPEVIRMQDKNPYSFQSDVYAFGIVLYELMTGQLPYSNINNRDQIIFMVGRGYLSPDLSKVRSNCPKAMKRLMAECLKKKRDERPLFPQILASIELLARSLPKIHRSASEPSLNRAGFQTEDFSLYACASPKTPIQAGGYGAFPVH
Chain of B-Raf (P15056 whole entry): as the sequence (P15056 whole entry V600E) above, with E600V counted along it

On to `COc1cc(-c2ccc3ncnc(Nc4ccc5[nH]nnc5c4)c3c2)ccc1O` [Compound 66, 4-(4-(1H-benzo[d][1,2,3]triazol-5-ylamino)quinazolin-6-yl)-2-methoxyphenol], for which the IC50 in test [1] amounted to 933 nM; in test [2] it was 973 nM; in test [3], 1010 nM. In addition, the inhibition at 1 µM in test [3] was determined as 59.3%.
In the case of `COc1cccc(-c2ccc3ncnc(Nc4cccc(O)c4)c3c2)c1` [Compound 67, 3-(6-(3-methoxyphenyl)quinazolin-4-ylamino)phenol], the values for the IC50 in test [1], in test [2] and in test [3] were 139 nM, 2400 nM and 103 nM, respectively. For the same compound, the inhibition at 1 µM in test [3] is 84.3%.
Take `Nc1ccc(-c2ccc3ncnc(Nc4cccc5[nH]ncc45)c3c2)cc1` [Compound 69, 6-(4-aminophenyl)-N-(1H-indazol-4-yl)quinazolin-4-amine]: the IC50 in test [1] turned out to be 342 nM; in test [2] it was 957 nM; in test [3], 260 nM. In addition, the inhibition at 1 µM in test [3] was 75%.
On to `CC(=O)Nc1ccc(-c2ccc3ncnc(Nc4cccc5[nH]ncc45)c3c2)cc1` [Compound 71, N-(4-(4-(1H-indazol-4-ylamino)quinazolin-6-yl)phenyl)acetamide], for which the values for the IC50 in test [1], in test [2] and in test [3] were 393 nM, 935 nM and 373 nM, respectively. Besides, the inhibition at 1 µM in test [3] was found to be 77.2%.
In the case of `CS(=O)(=O)Nc1cccc(-c2ccc3ncnc(Nc4cccc(O)c4)c3c2)c1` [Compound 72, N-(3-(4-(3-hydroxyphenylamino)quinazolin-6-yl)phenyl)methanesulfonamide], the values for the IC50 in test [1], in test [2] and in test [3] were 90 nM, 861 nM and 73.8 nM, respectively. For the same compound, in test [3], the inhibition at 1 µM worked out at 93.4%.
For the compound `CS(=O)(=O)Nc1ccc(-c2ccc3ncnc(Nc4cccc5[nH]ncc45)c3c2)cc1` [Compound 73, N-(4-(4-(1H-indazol-4-ylamino)quinazolin-6-yl)phenyl)methanesulfonamide], the IC50 in test [1] came to 487 nM; in test [2] it was 1430 nM; in test [3], 366 nM. The inhibition at 1 µM in test [3] worked out at 72.5%.
For the compound `COc1ccc(-c2ccc3ncnc(Nc4cccc5[nH]ncc45)c3c2)cc1Cl` [Compound 76, 6-(3-chloro-4-methoxyphenyl)-N-(1H-indazol-4-yl)quinazolin-4-amine], the results for the IC50 in test [1], in test [2] and in test [3] were 240 nM, 876 nM and 216 nM, respectively. The inhibition at 1 µM in test [3] is 86.1%.
For `COc1ccc(-c2ccc3ncnc(Nc4cccc5[nH]ncc45)c3c2)c(C)c1` [Compound 77, N-(1H-indazol-4-yl)-6-(4-methoxy-2-methylphenyl)quinazolin-4-amine], the IC50 in test [1] worked out at 911 nM; in test [2] it was 2530 nM; in test [3] it was 698 nM. In addition, in test [3], the inhibition at 1 µM is 61.7%.
Taken in the same sequence, the figures for `COc1ccc(-c2ccc3ncnc(Nc4cccc5[nH]ncc45)c3c2)cc1C` [Compound 78, N-(1H-indazol-4-yl)-6-(4-methoxy-3-methylphenyl)quinazolin-4-amine] were 736 nM, 1860 nM, 470 nM and 71.1%.
As for `Fc1ccc(-c2ccc3ncnc(Nc4cccc5[nH]ncc45)c3c2)cc1Cl` [Compound 79, 6-(3-chloro-4-fluorophenyl)-N-(1H-indazol-4-yl)quinazolin-4-amine], the IC50 in test [1] is 557 nM; in test [2], 1220 nM; in test [3] it was 514 nM. Moreover, in test [3], the inhibition at 1 µM stood at 69.6%.
Take `Clc1ccc(-c2ccc3ncnc(Nc4cccc5[nH]ncc45)c3c2)cc1` [Compound 80, 6-(4-chlorophenyl)-N-(1H-indazol-4-yl)quinazolin-4-amine]: the IC50 in test [1] is 289 nM; in test [2], 919 nM; in test [3] it was 287 nM. In addition, in test [3], the inhibition at 1 µM stood at 77.2%.
